# Test results: ChEMBL document CHEMBL1201862, “PubChem BioAssay data set” (2004)
#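 48-hour exposure; five concentrations; linearly interpolated endpoints. Abbreviation: GI50, concentration required for 50% inhibition of growth.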 Calls of active or inactive are those of the source. Cut-off read from the data, not from the text of the source: active = GI50 up to about 1.1 µM and inactive = higher.
# Tests used:
# Test in all cases: inhibition of tumour cell growth, NCI panel, 48 h
# [1] = system: A498
# [2] = system: ACHN
# [3] = system: CCRF-CEM
# [4] = system: EKVX
# [5] = system: HCC 2998
# [6] = system: HL-60
# [7] = system: HT-29
# [8] = system: K562
# [9] = system: KM12
# [10] = system: MCF7
# [11] = system: NCI-H23
# [12] = system: NCI-H522
# [13] = system: OVCAR-3
# [14] = system: OVCAR-4
# [15] = system: PC-3
# [16] = system: SK-MEL-28
# [17] = system: SN12C
# [18] = system: SNB-75
# [19] = system: T47D
# [20] = system: UO-31
Structure (SMILES),GI50 [1],GI50 [2],GI50 [3],GI50 [4],GI50 [5],GI50 [6],GI50 [7],GI50 [8],GI50 [9],GI50 [10],GI50 [11],GI50 [12],GI50 [13],GI50 [14],GI50 [15],GI50 [16],GI50 [17],GI50 [18],GI50 [19],GI50 [20]
O=C(/C=C1\C[C@H]2C=Nc3ccccc3C(=O)N2C1)NCCCCCNC(=O)/C=C1\C[C@H]2C=Nc3ccccc3C(=O)N2C1,19.1 µM (inactive),1.98 µM (inactive),1.05 µM (active),18 µM (inactive),18.5 µM (inactive),2.4 µM (inactive),11.6 µM (inactive),2.88 µM (inactive),17.7 µM (inactive),6.97 µM (inactive),9.91 µM (inactive),0.726 µM (active),4.1 µM (inactive),7.53 µM (inactive),13.8 µM (inactive),12.1 µM (inactive),4.74 µM (inactive),13.6 µM (inactive),2.53 µM (inactive),1.94 µM (inactive)
CN(C)CCNC1=Nc2ccccc2C(=S)N2CSCC12 (centres undefined),> 100 µM (inactive),> 100 µM (inactive),> 100 µM (inactive),> 100 µM (inactive),> 100 µM (inactive),,> 100 µM (inactive),> 100 µM (inactive),> 100 µM (inactive),> 100 µM (inactive),,> 100 µM (inactive),> 100 µM (inactive),> 100 µM (inactive),> 100 µM (inactive),> 100 µM (inactive),> 100 µM (inactive),> 100 µM (inactive),> 100 µM (inactive),58.2 µM (inactive)
CCOC(=O)C1c2[nH]c3ccccc3c2CCN1C(=O)c1ccc(OC)o1 (centres undefined),> 10 µM (inactive),> 10 µM (inactive),> 10 µM (inactive),> 10 µM (inactive),> 10 µM (inactive),> 10 µM (inactive),> 10 µM (inactive),> 10 µM (inactive),> 10 µM (inactive),> 10 µM (inactive),> 10 µM (inactive),> 10 µM (inactive),> 10 µM (inactive),> 10 µM (inactive),> 10 µM (inactive),> 10 µM (inactive),> 10 µM (inactive),5.78 µM (inactive),> 10 µM (inactive),> 10 µM (inactive)
CC(C(O)c1ccccc1)C(O)(C(F)(F)F)C(F)(F)F (centres undefined),> 100 µM (inactive),> 100 µM (inactive),> 100 µM (inactive),> 100 µM (inactive),> 100 µM (inactive),> 100 µM (inactive),> 100 µM (inactive),> 100 µM (inactive),> 100 µM (inactive),76.4 µM (inactive),> 100 µM (inactive),> 100 µM (inactive),> 100 µM (inactive),> 100 µM (inactive),> 100 µM (inactive),> 100 µM (inactive),> 100 µM (inactive),65.3 µM (inactive),> 100 µM (inactive),> 100 µM (inactive)
O=C1C(Cl)=C(N2C(=O)CCCC2=O)C(=O)c2ccccc21,16.8 µM (inactive),8.87 µM (inactive),4.13 µM (inactive),16.3 µM (inactive),16.6 µM (inactive),1.7 µM (inactive),15.7 µM (inactive),2.7 µM (inactive),62.1 µM (inactive),16.8 µM (inactive),17.2 µM (inactive),1.84 µM (inactive),31.6 µM (inactive),,19.6 µM (inactive),13.9 µM (inactive),21.2 µM (inactive),16.4 µM (inactive),22.9 µM (inactive),11 µM (inactive)
C[N+](C)(CCNC(=O)c1cccc2cc3ccccc3nc12)Cc1ccc([N+](=O)[O-])s1,> 25 µM (inactive),> 25 µM (inactive),> 25 µM (inactive),> 25 µM (inactive),,10.9 µM (inactive),> 25 µM (inactive),> 25 µM (inactive),> 25 µM (inactive),> 25 µM (inactive),> 25 µM (inactive),> 25 µM (inactive),> 25 µM (inactive),,> 25 µM (inactive),> 25 µM (inactive),> 25 µM (inactive),> 25 µM (inactive),> 25 µM (inactive),> 25 µM (inactive)
N=C(N)SCC(=O)O,> 100 µM (inactive),> 100 µM (inactive),> 100 µM (inactive),> 100 µM (inactive),> 100 µM (inactive),,> 100 µM (inactive),5.68 µM (inactive),> 100 µM (inactive),> 100 µM (inactive),> 100 µM (inactive),> 100 µM (inactive),> 100 µM (inactive),> 100 µM (inactive),> 100 µM (inactive),> 100 µM (inactive),> 100 µM (inactive),> 100 µM (inactive),> 100 µM (inactive),> 100 µM (inactive)
COC(=O)C(COC(C)=O)NC(=O)/C=C/c1ccc(O)c(OC(C)=O)c1 (centres undefined),> 100 µM (inactive),74 µM (inactive),17.4 µM (inactive),> 100 µM (inactive),63.4 µM (inactive),,78.2 µM (inactive),44.6 µM (inactive),67.1 µM (inactive),> 100 µM (inactive),> 100 µM (inactive),11.4 µM (inactive),50.6 µM (inactive),70.8 µM (inactive),99.1 µM (inactive),66.2 µM (inactive),> 100 µM (inactive),> 100 µM (inactive),31.2 µM (inactive),49.2 µM (inactive)
Cc1c(NC(=S)NN)c(=O)n(-c2ccccc2)n1C,> 100 µM (inactive),,> 100 µM (inactive),> 100 µM (inactive),,> 100 µM (inactive),> 100 µM (inactive),> 100 µM (inactive),> 100 µM (inactive),> 100 µM (inactive),,0.637 µM (active),> 100 µM (inactive),> 100 µM (inactive),> 100 µM (inactive),> 100 µM (inactive),> 100 µM (inactive),20 µM (inactive),> 100 µM (inactive),> 100 µM (inactive)
OCC(O)C(O)C(O)C(/C=N\Nc1ncnc2ccc(Br)cc12)=N/Nc1ncnc2ccc(Br)cc12 (centres undefined),50.5 µM (inactive),5.24 µM (inactive),,4.42 µM (inactive),,3.15 µM (inactive),4.44 µM (inactive),7.48 µM (inactive),17.2 µM (inactive),34.4 µM (inactive),,0.596 µM (active),2.72 µM (inactive),2.94 µM (inactive),19 µM (inactive),45.9 µM (inactive),17.9 µM (inactive),24.4 µM (inactive),3.2 µM (inactive),37.5 µM (inactive)
O=C(NNc1ccc([N+](=O)[O-])cc1[N+](=O)[O-])/C(O)=C\C(=O)c1ccccc1,28.9 µM (inactive),23.1 µM (inactive),16.9 µM (inactive),25.2 µM (inactive),16.4 µM (inactive),,,25.1 µM (inactive),16.3 µM (inactive),29.4 µM (inactive),20 µM (inactive),25.6 µM (inactive),,22.6 µM (inactive),20.3 µM (inactive),23.5 µM (inactive),16.5 µM (inactive),12.8 µM (inactive),15.6 µM (inactive),14.3 µM (inactive)
